system: HCC1599; experiment: normalised viability (% of control), CellTiter-Blue; higher = more viable cells (100 = DMSO, 0 = benzethonium chloride kill control); details: incubation time: 72 h
Method in brief: (§1)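 Each entry is normalised viability at a single listed concentration within a series. It comes from breast cancer cell lines incubated 72 h with compound in 384-well plates, then measured with CellTiter-Blue fluorescence at 560/590 nm. Every plate was normalised between vehicle (100) and a positive kill control (0).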

| Compound | normalised viability |
| --- | --- |
| CO[C@@]12[C@H](COC(N)=O)C3=C(C(=O)C(C)=C(N)C3=O)N1C[C@@H]1N[C@@H]12 [Mitomycin C] (1 nM) | 94.8% |
| CCNC(=O)c1noc(-c2cc(C(C)C)c(O)cc2O)c1-c1ccc(CN2CCOCC2)cc1 [NVP-AUY922] (0.1 nM) | 103% |

system: HCC1937; experiment: as above; details: incubation time: 72 h
Method in brief: as §1

| Compound | normalised viability |
| --- | --- |
| CC(=O)[C@]1(O)Cc2c(O)c3c(c(O)c2[C@@H](O[C@H]2C[C@H](N)[C@H](O)[C@H](C)O2)C1)C(=O)c1ccccc1C3=O [Idarubicin] (0.1 nM) | 92.9% |
| C/C(=C\c1csc(C)n1)[C@@H]1C[C@@H]2O[C@]2(C)CCC[C@H](C)[C@H](O)[C@@H](C)C(=O)C(C)(C)[C@@H](O)CC(=O)N1 [Ixabepilone] (0.1 nM) | 89.2% |
| C=CCn1c(=O)c2cnc(Nc3ccc(N4CCN(C)CC4)cc3)nc2n1-c1cccc(C(C)(C)O)n1 [MK1775] (1 nM) | 106% |
| CO[C@@H]1[C@H](N(C)C(=O)c2ccccc2)C[C@H]2O[C@]1(C)n1c3ccccc3c3c4c(c5c6ccccc6n2c5c31)C(=O)NC4 [Midostaurin] (1 nM) | 132% |
| CO[C@@]12[C@H](COC(N)=O)C3=C(C(=O)C(C)=C(N)C3=O)N1C[C@@H]1N[C@@H]12 [Mitomycin C] (1 nM) | 106% |
| CCNC(=O)c1noc(-c2cc(C(C)C)c(O)cc2O)c1-c1ccc(CN2CCOCC2)cc1 [NVP-AUY922] (0.1 nM) | 91.2% |

system: HDQ-P1; experiment: as above; details: incubation time: 72 h
Method in brief: as §1

| Compound | normalised viability |
| --- | --- |
| CC(=O)[C@]1(O)Cc2c(O)c3c(c(O)c2[C@@H](O[C@H]2C[C@H](N)[C@H](O)[C@H](C)O2)C1)C(=O)c1ccccc1C3=O [Idarubicin] (0.1 nM) | 115% |
| C/C(=C\c1csc(C)n1)[C@@H]1C[C@@H]2O[C@]2(C)CCC[C@H](C)[C@H](O)[C@@H](C)C(=O)C(C)(C)[C@@H](O)CC(=O)N1 [Ixabepilone] (0.1 nM) | 97.2% |
| C=CCn1c(=O)c2cnc(Nc3ccc(N4CCN(C)CC4)cc3)nc2n1-c1cccc(C(C)(C)O)n1 [MK1775] (1 nM) | 84.2% |
| CO[C@@H]1[C@H](N(C)C(=O)c2ccccc2)C[C@H]2O[C@]1(C)n1c3ccccc3c3c4c(c5c6ccccc6n2c5c31)C(=O)NC4 [Midostaurin] (1 nM) | 108% |
| CO[C@@]12[C@H](COC(N)=O)C3=C(C(=O)C(C)=C(N)C3=O)N1C[C@@H]1N[C@@H]12 [Mitomycin C] (1 nM) | 118% |
| CCNC(=O)c1noc(-c2cc(C(C)C)c(O)cc2O)c1-c1ccc(CN2CCOCC2)cc1 [NVP-AUY922] (0.1 nM) | 81.1% |

system: Hs578T; experiment: as above; details: incubation time: 72 h
Method in brief: as §1

| Compound | normalised viability |
| --- | --- |
| CC(=O)[C@]1(O)Cc2c(O)c3c(c(O)c2[C@@H](O[C@H]2C[C@H](N)[C@H](O)[C@H](C)O2)C1)C(=O)c1ccccc1C3=O [Idarubicin] (0.1 nM) | 112% |
| C/C(=C\c1csc(C)n1)[C@@H]1C[C@@H]2O[C@]2(C)CCC[C@H](C)[C@H](O)[C@@H](C)C(=O)C(C)(C)[C@@H](O)CC(=O)N1 [Ixabepilone] (0.1 nM) | 90% |
| C=CCn1c(=O)c2cnc(Nc3ccc(N4CCN(C)CC4)cc3)nc2n1-c1cccc(C(C)(C)O)n1 [MK1775] (1 nM) | 106% |
| CO[C@@H]1[C@H](N(C)C(=O)c2ccccc2)C[C@H]2O[C@]1(C)n1c3ccccc3c3c4c(c5c6ccccc6n2c5c31)C(=O)NC4 [Midostaurin] (1 nM) | 104% |
| CO[C@@]12[C@H](COC(N)=O)C3=C(C(=O)C(C)=C(N)C3=O)N1C[C@@H]1N[C@@H]12 [Mitomycin C] (1 nM) | 134% |
| CCNC(=O)c1noc(-c2cc(C(C)C)c(O)cc2O)c1-c1ccc(CN2CCOCC2)cc1 [NVP-AUY922] (0.1 nM) | 150% |

system: MDA-MB-231; experiment: as above; details: incubation time: 72 h
Method in brief: as §1

| Compound | normalised viability |
| --- | --- |
| CC(=O)[C@]1(O)Cc2c(O)c3c(c(O)c2[C@@H](O[C@H]2C[C@H](N)[C@H](O)[C@H](C)O2)C1)C(=O)c1ccccc1C3=O [Idarubicin] (0.1 nM) | 78% |
| C/C(=C\c1csc(C)n1)[C@@H]1C[C@@H]2O[C@]2(C)CCC[C@H](C)[C@H](O)[C@@H](C)C(=O)C(C)(C)[C@@H](O)CC(=O)N1 [Ixabepilone] (0.1 nM) | 99.1% |
| C=CCn1c(=O)c2cnc(Nc3ccc(N4CCN(C)CC4)cc3)nc2n1-c1cccc(C(C)(C)O)n1 [MK1775] (1 nM) | 95.2% |
| CO[C@@H]1[C@H](N(C)C(=O)c2ccccc2)C[C@H]2O[C@]1(C)n1c3ccccc3c3c4c(c5c6ccccc6n2c5c31)C(=O)NC4 [Midostaurin] (1 nM) | 95.3% |
| CO[C@@]12[C@H](COC(N)=O)C3=C(C(=O)C(C)=C(N)C3=O)N1C[C@@H]1N[C@@H]12 [Mitomycin C] (1 nM) | 87.4% |
| CCNC(=O)c1noc(-c2cc(C(C)C)c(O)cc2O)c1-c1ccc(CN2CCOCC2)cc1 [NVP-AUY922] (0.1 nM) | 121% |

system: MDA-MB-436; experiment: as above; details: incubation time: 72 h
Method in brief: as §1

| Compound | normalised viability |
| --- | --- |
| CC(=O)[C@]1(O)Cc2c(O)c3c(c(O)c2[C@@H](O[C@H]2C[C@H](N)[C@H](O)[C@H](C)O2)C1)C(=O)c1ccccc1C3=O [Idarubicin] (0.1 nM) | 112% |
| C/C(=C\c1csc(C)n1)[C@@H]1C[C@@H]2O[C@]2(C)CCC[C@H](C)[C@H](O)[C@@H](C)C(=O)C(C)(C)[C@@H](O)CC(=O)N1 [Ixabepilone] (0.1 nM) | 104% |
| C=CCn1c(=O)c2cnc(Nc3ccc(N4CCN(C)CC4)cc3)nc2n1-c1cccc(C(C)(C)O)n1 [MK1775] (1 nM) | 97.9% |
| CO[C@@H]1[C@H](N(C)C(=O)c2ccccc2)C[C@H]2O[C@]1(C)n1c3ccccc3c3c4c(c5c6ccccc6n2c5c31)C(=O)NC4 [Midostaurin] (1 nM) | 98.2% |
| CO[C@@]12[C@H](COC(N)=O)C3=C(C(=O)C(C)=C(N)C3=O)N1C[C@@H]1N[C@@H]12 [Mitomycin C] (1 nM) | 96.9% |
| CCNC(=O)c1noc(-c2cc(C(C)C)c(O)cc2O)c1-c1ccc(CN2CCOCC2)cc1 [NVP-AUY922] (0.1 nM) | 99.6% |

system: MDA-MB-453; experiment: as above; details: incubation time: 72 h
Method in brief: as §1

| Compound | normalised viability |
| --- | --- |
| CC(=O)[C@]1(O)Cc2c(O)c3c(c(O)c2[C@@H](O[C@H]2C[C@H](N)[C@H](O)[C@H](C)O2)C1)C(=O)c1ccccc1C3=O [Idarubicin] (0.1 nM) | 101% |
| C/C(=C\c1csc(C)n1)[C@@H]1C[C@@H]2O[C@]2(C)CCC[C@H](C)[C@H](O)[C@@H](C)C(=O)C(C)(C)[C@@H](O)CC(=O)N1 [Ixabepilone] (0.1 nM) | 93.5% |
| C=CCn1c(=O)c2cnc(Nc3ccc(N4CCN(C)CC4)cc3)nc2n1-c1cccc(C(C)(C)O)n1 [MK1775] (1 nM) | 104% |
| CO[C@@H]1[C@H](N(C)C(=O)c2ccccc2)C[C@H]2O[C@]1(C)n1c3ccccc3c3c4c(c5c6ccccc6n2c5c31)C(=O)NC4 [Midostaurin] (1 nM) | 94.3% |
| CO[C@@]12[C@H](COC(N)=O)C3=C(C(=O)C(C)=C(N)C3=O)N1C[C@@H]1N[C@@H]12 [Mitomycin C] (1 nM) | 102% |
| CCNC(=O)c1noc(-c2cc(C(C)C)c(O)cc2O)c1-c1ccc(CN2CCOCC2)cc1 [NVP-AUY922] (0.1 nM) | 114% |

system: MDA-MB-468; experiment: as above; details: incubation time: 72 h
Method in brief: as §1

| Compound | normalised viability |
| --- | --- |
| CC(=O)[C@]1(O)Cc2c(O)c3c(c(O)c2[C@@H](O[C@H]2C[C@H](N)[C@H](O)[C@H](C)O2)C1)C(=O)c1ccccc1C3=O [Idarubicin] (0.1 nM) | 130% |
| C/C(=C\c1csc(C)n1)[C@@H]1C[C@@H]2O[C@]2(C)CCC[C@H](C)[C@H](O)[C@@H](C)C(=O)C(C)(C)[C@@H](O)CC(=O)N1 [Ixabepilone] (0.1 nM) | 86.7% |
| C=CCn1c(=O)c2cnc(Nc3ccc(N4CCN(C)CC4)cc3)nc2n1-c1cccc(C(C)(C)O)n1 [MK1775] (1 nM) | 105% |
| CO[C@@H]1[C@H](N(C)C(=O)c2ccccc2)C[C@H]2O[C@]1(C)n1c3ccccc3c3c4c(c5c6ccccc6n2c5c31)C(=O)NC4 [Midostaurin] (1 nM) | 99.5% |
| CO[C@@]12[C@H](COC(N)=O)C3=C(C(=O)C(C)=C(N)C3=O)N1C[C@@H]1N[C@@H]12 [Mitomycin C] (1 nM) | 94.3% |
| CCNC(=O)c1noc(-c2cc(C(C)C)c(O)cc2O)c1-c1ccc(CN2CCOCC2)cc1 [NVP-AUY922] (0.1 nM) | 106% |

system: MFM-223; experiment: as above; details: incubation time: 72 h
Method in brief: as §1

| Compound | normalised viability |
| --- | --- |
| CC(=O)[C@]1(O)Cc2c(O)c3c(c(O)c2[C@@H](O[C@H]2C[C@H](N)[C@H](O)[C@H](C)O2)C1)C(=O)c1ccccc1C3=O [Idarubicin] (0.1 nM) | 97% |
| C/C(=C\c1csc(C)n1)[C@@H]1C[C@@H]2O[C@]2(C)CCC[C@H](C)[C@H](O)[C@@H](C)C(=O)C(C)(C)[C@@H](O)CC(=O)N1 [Ixabepilone] (0.1 nM) | 78.8% |
| C=CCn1c(=O)c2cnc(Nc3ccc(N4CCN(C)CC4)cc3)nc2n1-c1cccc(C(C)(C)O)n1 [MK1775] (1 nM) | 94.8% |
| CO[C@@H]1[C@H](N(C)C(=O)c2ccccc2)C[C@H]2O[C@]1(C)n1c3ccccc3c3c4c(c5c6ccccc6n2c5c31)C(=O)NC4 [Midostaurin] (1 nM) | 108% |
| CO[C@@]12[C@H](COC(N)=O)C3=C(C(=O)C(C)=C(N)C3=O)N1C[C@@H]1N[C@@H]12 [Mitomycin C] (1 nM) | 91.1% |
| CCNC(=O)c1noc(-c2cc(C(C)C)c(O)cc2O)c1-c1ccc(CN2CCOCC2)cc1 [NVP-AUY922] (0.1 nM) | 99.4% |

system: SK-BR-3; experiment: as above; details: incubation time: 72 h
Method in brief: as §1

| Compound | normalised viability |
| --- | --- |
| CC(=O)[C@]1(O)Cc2c(O)c3c(c(O)c2[C@@H](O[C@H]2C[C@H](N)[C@H](O)[C@H](C)O2)C1)C(=O)c1ccccc1C3=O [Idarubicin] (0.1 nM) | 95.3% |
| C/C(=C\c1csc(C)n1)[C@@H]1C[C@@H]2O[C@]2(C)CCC[C@H](C)[C@H](O)[C@@H](C)C(=O)C(C)(C)[C@@H](O)CC(=O)N1 [Ixabepilone] (0.1 nM) | 79.6% |
| C=CCn1c(=O)c2cnc(Nc3ccc(N4CCN(C)CC4)cc3)nc2n1-c1cccc(C(C)(C)O)n1 [MK1775] (1 nM) | 92.9% |
| CO[C@@H]1[C@H](N(C)C(=O)c2ccccc2)C[C@H]2O[C@]1(C)n1c3ccccc3c3c4c(c5c6ccccc6n2c5c31)C(=O)NC4 [Midostaurin] (1 nM) | 109% |
| CO[C@@]12[C@H](COC(N)=O)C3=C(C(=O)C(C)=C(N)C3=O)N1C[C@@H]1N[C@@H]12 [Mitomycin C] (1 nM) | 90.3% |
| CCNC(=O)c1noc(-c2cc(C(C)C)c(O)cc2O)c1-c1ccc(CN2CCOCC2)cc1 [NVP-AUY922] (0.1 nM) | 94.8% |

— the supplement of paper PMC4862054
